Measured values: patent publication US20260306641A1, “HELICASE DEGRADERS” (priority 2023, published 2026)

How the values were obtained:
HaCaT cells = test: DNA damage (gamma-H2AX) and apoptosis (cleaved Parp) immunoblot, HaCaT; assay type: cell-based, human; details: 15 μM, 48 hrs
Description: FIGS. 7A-7C depict that CMGi induce DNA damage and selectively reduce tumor cell viability. (FIG. 7A) Cell Titer Glo viability assays for CA1/CMGi sensitivity were performed on 143B (OS), Psn1 (PDAC), and H460 (NSCLC) tumor lines. Novobiocin was tested against 143B cells as a comparison. (FIG. 7B) Immunoblot of chromatin-bound proteins (as indicated) from asynchronous 143B OS cells treated with 10 μM novobiocin or increasing concentrations of CA1 for 24 hrs. (FIG. 7C) Immunoblot of total proteins from Psn1, H460, 143B, and HaCaT cells treated with 5 μM CA1/CMGi or DMSO/novobiocin controls, or HaCaT treated with 15 μM CA1/CMGi (right side). The Psn1 and H460 cells were treated for 24 hrs, and 143B and HaCaT cells were treated for 48 hrs. Probing of blots was done with anti-gamma-H2AX (DNA damage signal) or anti-cleaved-Parp (apoptotic indicator). Anti-GAPDH is a loading control.

[1] = test system: hCMG complexes immunoprecipitated from HaCaT cells; test: Co-immunoprecipitation, HaCaT nuclear extract; assay type: biochemical, human; details: 15 μM, 30 min
Description: (§1) Nuclear extracts were prepared from synchronized HaCaT cells after releasing into S-phase (at 20 hrs post release) or HEK-293T cells expressing stable Flag-Mcm2 protein (human). Cells from one 10 cm dish were resuspended in […] of Buffer A (10 mM Hepes-KOH pH 7.5, 10 mM KCl, 1.5 mM MgCl2, 0.34 M sucrose, 10% glycerol, protease inhibitors, and 0.1% Triton-X-100) and incubated on ice for 5 min. The nuclear pellet was obtained by centrifugation at 4,000 rpm at 4° C. for 5 min and washed with the Buffer A without Triton X-100. The nuclear extract was obtained by resuspending the nuclear pellet in […] of Buffer A containing 420 mM potassium acetate and 0.01% Triton X-100, and incubating at 4° C. for 1 hr. The final concentration of potassium acetate in nuclear extracts was adjusted to 200 mM for the co-immunoprecipitation assays. For the co-immunoprecipitation assays, […] of indicated antibody [anti-Mcm2, anti-Psf1, or rabbit IgG (Sigma)], or 30 mL of mouse IgG or anti-Flag agarose beads (Sigma), was incubated with […] of nuclear extract at 4° C. for 4 hrs. Protein A/G agarose beads (30 mL, Santa Cruz, sc-2003) were added and incubated for 1 hr with antibodies. Agarose beads were washed once in Buffer A containing 200 mM potassium acetate and 0.01% Triton X-100 and incubated with 15 μM CA1 or DMSO (same concentration as in CA1 sample) for 30 min. Beads were washed in the same buffer and analyzed by immunoblotting with indicated antibodies.

[2] = test system: bacterial type-2 topoisomerase, gyrase; details: cited from earlier work
[3] = test system: Flag-Mcm2 hCMG and replisome complexes from HEK-293T cells; test: Co-immunoprecipitation, HEK-293T cells expressing Flag-Mcm2; assay type: biochemical, human; details: 15 μM, 30 min; Flag IP
Description: as §1, with “Agarose beads were washed once in Buffer A containing 200 mM potassium acetate and 0.01% Triton X-100 and incubated with 15 μM CA1 or DMSO (same concentration as in CA1 sample) for 30 min.” left out

[4] = test system: Dbf4-Cdc7 (DDK); Mcm2 S53 and S139; test: Immunoblot of DDK-dependent Mcm2 phosphorylation, HaCaT cells; assay type: cell-based, human; details: extended exposure (18 hrs)
Description: Immunoblots of total proteins from synchronized HaCaT cells treated with compounds at time of release (0 hr; beginning of G1 phase) and collected after 18 hrs of exposure. (FIG. 5A) DDK-dependent phosphorylation sites on Mcm2 were analyzed with phospho-specific antibodies. (FIG. 5B) Cdk1- and Cdk2-dependent targets (Rb, Cdc6, and PP1α) were analyzed with phospho-specific antibodies.

Compound: CO[C@@H]1[C@@H](OC(=O)c2ccc(C)[nH]2)[C@@H](O)[C@H](Oc2ccc3c(O)c(NC(=O)c4c[nH]c(C(=O)Nc5c(O)c6ccc(O[C@@H]7OC(C)(C)[C@H](OC)[C@@H](OC(=O)c8ccc(C)[nH]8)[C@H]7O)c(C)c6oc5=O)c4C)c(=O)oc3c2C)OC1(C)C [CA1]
- gamma-H2AX and Parp cleavage (HaCaT cells): HaCaT cells will eventually incur DNA damage and Parp cleavage
- Cdc45 association with MCMs ([1]; Mcm2 IP): causes Cdc45 to dissociate from MCMs
- MCM complexes ([1]; Mcm2 IP): does not disrupt MCM complexes
- Mcm2 and Mcm6 interactions with GINS ([1]; Psf1 IP): abolished
- Psf1-3 interactions ([1]; Psf1 IP): did not disrupt Psf1-3 interactions
- gyrase inhibition [2]: known to inhibit the bacterial type-2 topoisomerase, gyrase
- MCM interactions [3]: does not disrupt MCM interactions
- Psf1, Cdc45 and Ctf4 association with Flag-Mcm2 [3]: displaces Psf1, Cdc45, and Ctf4 from Flag-Mcm2
- Mcm2 S53 and S139 phosphorylation [4]: no phosphorylation changes
